In US11980667B2, “Short TAT oligomers for drug delivery” (The Trustees of Columbia University in the City of New York, priority 2017, dated 2024):

How the values were obtained:
C6 glioma = conditions: IA-TCH, 0.5 mg, N=3
Procedure: For in vivo tumor delivery studies, rats were implanted with C6 brain tumor cells as previously described. […] They were scarified 10 minutes later and the brains were harvested and sectioned.
Fluorescence and electron multiplying charge-coupled device imaging. Fluorescence imaging was done with a white light excitation through a 470 nm filter with central frequency. Emission was observed through a 520 nm band pass filter using a fluorescence camera (Prosilica GE™ AVI Technologies Inc.). All images were normalized to the background and to the injected FITC-TAT concentrations—a sample of which was imaged alongside in a capillary tube.

[1] = Delivery of cell-penetrating peptides to the brain of healthy rats, confocal microscopy; type: in vivo, rat
Description: Animal preparation, IA-TCH injection, and brain tumor implantation. Animal protocols were approved by the Columbia University Institutional Animal Care and Use Committee (IACUC). Studies were primarily conducted on Sprague-Dawley rats weighing 250 to 300 grams. In the case of electron multiplying charge-coupled device imaging studies, Fisher 344 rats implanted with 9L brain tumors were utilized. The surgical preparation including anesthesia, carotid and femoral cannulation, cerebral blood flow and vital sign monitoring, as well as in vivo fluorescence imaging have been previously described in detail.
IA injections of cell-penetrating peptides (CPPs) were made during TCH as 65 μL pulses totaling 1 ml in volume. TCH was produced by a bolus injection of adenosine, esmolol, and cold saline. Animals were allowed to hemodynamically recover from TCH and euthanized 10 minutes after injection. Uptake of CPPs was assessed with a fluorescence camera and with confocal fluorescence microscopy.
Cell-penetrating peptides. Two experimental cell-penetrating peptides were tested: 1. octaarginine, also called (Arg)8 or R-8 (SEQ ID NO: 13) and 2. trans-activator of transcription or TAT (Lifetien Inc.). The 14 amino acid peptide sequence for TAT is […]COOH (SEQ ID NO: 11). Both cell-penetrating peptides (CPPs) were labeled with fluorescein so that their distribution could be identified by multispectral imaging and with fluorescence microscopy of the frozen brain sections.
Fluorescence and electron multiplying charge-coupled device imaging.

9L glioma [2] = assay: Quantitative tumor TAT-FITC uptake, electron multiplying charge-coupled device imaging; type: in vivo, rat
Description: In addition to the standard fluorescence imaging described above, we assess tumor uptake of TAT-FITC using a higher resolution, quantitative tool utilizing an electron-multiplying charge coupled device. To accomplish this we used two warm white light LEDs to evenly illuminate the tissue samples through a narrow (10 nm) band pass filter with 470 nm central transmission (Thor Labs, New Jersey). An Evolve 520 high sensitivity electron multiplying charge-coupled device (Photometeric Inc. Tucson, AZ) was utilized while using a 520 nm narrow band pass filter. Each sample was normalized to the background and to the injected drug concentrations. Four 2 mm sections were interrogated for each specimen on either side of the plane of tumor implantation. The data was corrected for ambient light, tissue independent background fluorescence, and contralateral hemisphere tissue fluorescence.

9L glioma [3] = assay: IA-TCH versus IV delivery: uptake by confocal microscopy imaging of frozen sections; type: in vivo, rat; conditions: n = 6
Description: Comparison of […] and IV TAT delivery. Fisher 344 rats weighing about 200 g were utilized. During initial surgery under ketamine-xylazine isoflurane anesthesia 5×10^5 9 L cells were implanted 3 mm below the skull and 2-3 mm posterior and lateral to the bregma through a 1 mm craniotomy. […] The animals were assigned separately to IV and IA-TCH groups. On the day of drug delivery, animals were sedated with isoflurane and injected with ketamine/xylazine. The tail vein was cannulated for intravenous access. Under aseptic precautions, a tracheostomy and carotid cannulation were performed. Anesthesia was maintained by mechanical ventilation with isoflurane (1.8-2.2%). Thereafter animals were turned prone on a stereotactic frame. The skull was exposed and the region of tumor implantation was shaved to transparency. A laser Doppler probe was implanted on the skull with the aid of a plastic holder to assess cerebral/tumor blood flow. Rectal temperature, pulse pleth (volume), pulse oxygen saturation, EKG, expired and inspired gas composition, brain and skin blood flow with lase Doppler were continuously monitored.
Transient cerebral hypoperfusion and fluorescein-labeled TAT monomer injection. IA injections were made during TCH by the following method. Reduction of blood flow was achieved by bolus IV injections of adenosine (2 mg) and esmolol (2 mg), and cold saline (1.5 mL at 4° C.). Typically such an intervention decreases cerebral blood flow to about 20% of the baseline. The heart rate response varies from sinus bradycardia to a sinus pause. However, physiological parameters rapidly recover within 3-5 minutes. […] For each animal, a test IA injection was done prior to the onset of hypotension to ensure delivery of the desired injection volume and the injection sequence was resumed after bolus IV injections of hypotensive drugs.
Frozen sections (10 μm thick) were imaged under a Nikon confocal microscope with 470 nm excitation. Due to the large size of the tissue sample, small sections of images were obtained and then assembled together. An adjacent section was stained with hematoxylin and eosin to confirm the size and location of the tumor. The total fluorescence in the tumor region, in the non-tumor ipsi-lateral hemisphere, and in the corresponding region contra-lateral to the tumor was quantified. The contra-lateral hemisphere was used for background correction.

9L glioma tumor = assay: In vivo uptake of TAT dimer versus monomer by IA-TCH (MSI and confocal imaging); parameters: species or system rat; conditions: dimer 0.25 mg, monomer 0.125 mg, five rats each
Procedure: An additional experiment was performed to assess the in vivo uptake of fluorescein-labeled TAT dimer by IA-TCH. About 14 days after 9L glioma tumor implantation, rats were anesthetized and prepared for TAT dimer delivery experiments. TAT dimer was conjugated with fluorescein such that its concentrations in post mortem samples could be determined immediately by multispectral imaging and confocal imaging. TAT dimer (0.25 mg) and monomer (0.125 mg) were tested using IA-TCH delivery both containing equal amounts of fluorescein were evaluated. […] Animals were sacrificed 15 minutes after TAT injection. Brain tissue was harvested.

9L glioma tumors [4] = conditions: four arrest cycles IA-TCH; single arrest from historical controls
Procedure: Multiple Arrest Study. 9L glioma tumors were implanted into five rats. 14 days post-implantation, the rats were anesthetized and prepared for the injections. Blood flow reduction was achieved by bolus IV injection of adenosine and esmolol that were flushed with cold saline. Four arrest cycles were used to deliver fluorescein-conjugated TAT monomer via intra-arterial injection with a 5 minute recovery period between each arrest. Animals were sacrificed 15 minutes after injection. Brain tissues were harvested an imaged using a multi-spectral imaging system using a photon counted cooled fluorescence camera. A 470 nm light was used for excitation while a 530 nm filter was used for imaging the emitted light.

9L glioma tumors [5] = assay: Single arrest study: IV versus IA-TCH (multi-spectral imaging and confocal microscopy); type: in vivo, rat
Procedure: Single Arrest Study. 9L glioma tumors were implanted into eight rats. […] Animals were sacrificed 15 minutes after injection. […] Brain tissues were also hematoxylin and eosin stained and imaged by confocal microscopy.

[6] = IV injection, confocal microscopy
[7] = IV injection, multi-spectral imaging

## N=C(N)NCCC[C@H](NC(=O)CNC(=O)c1ccc2c(c1)C(=O)OC21c2ccc(O)cc2Oc2cc(O)ccc21)C(=O)N[C@@H](CCCCN)C(=O)N[C@@H](CCCCN)C(=O)N[C@@H](CCCNC(=N)N)C(=O)N[C@@H](CCCNC(=N)N)C(=O)N[C@@H](CCC(N)=O)C(=O)N[C@@H](CCCNC(=N)N)C(=O)N[C@@H](CCCNC(=N)N)C(=O)N[C@@H](CCCNC(=N)N)C(=O)N1CCC[C@H]1C(=O)N1CCC[C@H]1C(=O)N[C@@H](CCC(N)=O)C(=O)N[C@@H](CCC(N)=O)C(=O)O [fluorescein-labeled TAT monomer, 5-FAM-GRKKRRQRRR PPQQ-COOH]
C6 glioma
  Deposition in tumor (semi-quantitative fluorescence imaging): preferentially targeted to the tumor mass in all animals
[1]; IA-TCH carotid injection, confocal microscopy
  Deposition by hemisphere: detectable deposition preferentially to the hemisphere ipsilateral to carotid injection
[1]; IA-TCH, dose range 0.25-1 mg
  Parenchymal deposition versus dose: dose dependent increase
[1]; IA-TCH, confocal microscopy
  Distribution in the brain (semi-quantitative): more diffuse deposition within the white matter
[1]; IV delivery of 0.5 mg, FIG. 17 F
  Distribution in the brain: diffuse uptake of TAT in and beyond the blood vessels was seen preferentially in the white matter
9L glioma [2]; IA-TCH, N=8
  Tumor TAT deposition compared to the corresponding contralateral region: 11.7 fold
9L glioma [2]; six animals, FIG. 19E
  Fluorescence in the tumor compared to the ipsilateral non-tumor regions: 7.4 ×
  Fluorescence in the tumor compared to the tumor site on the contralateral hemisphere: 10.5 ×
9L glioma [3]; IA-TCH
  Contralateral fluorescence: 161 ± 94 AU
  Ipsi-lateral fluorescence: 353 ± 76 AU
  Ipsi/contralateral ratio: 2.7 ± 1.4
  Tumor fluorescence: 1758 ± 474 AU
  Tumor/contralateral ratio: 13.8 ± 7.6
  Tumor/ipsi-lateral ratio: 4.9 ± 0.7
9L glioma [3]; IV
  Contralateral fluorescence: 205 ± 67 AU
  Ipsi-lateral fluorescence: 216 ± 65 AU
  Ipsi/contralateral ratio: 1.1 ± 0.5
  Tumor fluorescence: 528 ± 246 AU
  Tumor/contralateral ratio: 3.0 ± 1.4
  Tumor/ipsi-lateral ratio: 2.4 ± 1.1
9L glioma tumor
  Tumor selective delivery: able to achieve tumor selective drug delivery
9L glioma tumors [4]
  Deposition, multiple arrest compared to single-arrest: increases the amount of TAT deposition but also increases non-specific deposition
9L glioma tumors [5]; IA-TCH
  Tumor selectivity: 5-6 ×
9L glioma tumors [5]; IA-TCH, confocal microscopy
  Fluorescence in the tumor versus the contralateral hemisphere: 10.78 ×
  Fluorescence in the tumor versus the ipsilateral brain tissue: 5.07 ×
9L glioma tumors [5]; IA-TCH, multi-spectral imaging
  Fluorescence in the tumor versus the contralateral hemisphere: 9.90 ×
  Fluorescence in the tumor versus the ipsilateral brain tissue: 5.93 ×
9L glioma tumors [5]; [6]
  Fluorescence in the tumor versus the contralateral hemisphere: 2.61 ×
  Fluorescence in the tumor versus the ipsilateral brain tissue: 2.43 ×
9L glioma tumors [5]; [7]
  Fluorescence in the tumor versus the contralateral hemisphere: 2.72 ×
  Fluorescence in the tumor versus the ipsilateral brain tissue: 2.59 ×
9L glioma tumors [5]; IV injections
  Tumor selectivity: 2 ×
9L glioma tumors [5]; rat, in vivo, iv
  Tumor concentration, IA-TCH relative to IV: about four-fold greater
